Results published in patent US20070074967A1, “Photodegradable protective group” (The University of Tokyo, priority 2005, published 2007).

Assay: Photodeprotection by irradiation with light of 470 nm (absorption spectra, fluorescence)
Type: physicochemical
Details: for Change of absorption peaks around 450 nm with the light irradiation / Change of absorption peaks around 490 nm with the light irradiation (release of 6-hydroxy-9-o-toluylxanthen-3-one by deprotection): 3 μM in 0.1 M sodium phosphate buffer (pH 7.4), 10% N,N-dimethylformamide, light of 470 nm, argon laser, FIG. 1
Method: 3,5-DNB-2-Me TG obtained in Example 1 and o-NB-2-Me TG obtained in Example 2 were each dissolved in 0.1 M sodium phosphate buffer (pH 7.4) at a concentration of 3 μM. As a cosolvent, 10% N,N-dimethylformamide was added.
Light of 470 nm was irradiated by using an argon laser. One cycle consisted of 128 pulses×10 times.
It can be understood that the peaks around 450 nm observed for 3,5-DNB-2-Me TG and o-NB-2-Me TG were lowered, and the peaks around 490 nm were highered with the light irradiation. This is because 6-hydroxy-9-o-toluylxanthen-3-one was released from the compounds by deprotection.

Structure (SMILES)	Change of absorption peaks around 450 nm with the light irradiation	Change of absorption peaks around 490 nm with the light irradiation (release of 6-hydroxy-9-o-toluylxanthen-3-one by deprotection)	Fluorescence provided by released 6-hydroxy-9-o-toluylxanthen-3-one on irradiation (irradiated with light of 470 nm, FIG. 2)
Cc1ccccc1-c1c2ccc(=O)cc-2oc2cc(OCc3ccccc3[N+](=O)[O-])ccc12 [o-NB-2-Me TG, 6-(2-nitrobenzyloxy)-9-o-toluylxanthen-3-one]	lowered	highered	–
Cc1ccccc1-c1c2ccc(=O)cc-2oc2cc(OCc3cc([N+](=O)[O-])cc([N+](=O)[O-])c3)ccc12 [3,5-DNB-2-Me TG, 6-(3,5-dinitrobenzyloxy)-9-o-toluylxanthen-3-one]	lowered	highered	increase of fluorescence
